Measured values reported in patent US6849612B2, “Oligonucleotide modulation of cell adhesion” (ISIS Pharmaceuticals, Inc., priority 1993, dated 2005).
Strand notation (5' to 3'): a small letter for the sugar, then the base; units joined by * are phosphorothioate-linked, units joined directly phosphodiester-linked; [ ] holds rarer units or linkages, { } end groups; capitals alone tell only the bases. d = 2'-deoxy (DNA)

What was measured:
leukocyte migration = test: Leukocyte migration into carrageenan-soaked sponges in mice; format: in vivo, mouse; conditions: 3 mg/kg oral, after surgery, 6-8 hours later and at 21 hours; vs vehicle control
[1] = test system: adherence of HL-60 cells to human umbilical vein endothelial cells; test: Cell adherence assay: DMSO differentiated HL-60 cells to TNF treated HUVEC; format: cell-based; conditions: TNF-α stimulated HUVEC, Example 11; control 19%
Protocol: Target cells are grown as a monolayer in a multiwell plate, treated with oligonucleotide followed by cytokine. The adhering cells are then added to the monolayer cells and incubated for 30 to 60 minutes at 37° C. and washed to remove nonadhering cells. Cells adhering to the monolayer may be determined either by directly counting the adhering cells or prelabeling the cells with a radioisotope such as ^51Cr and quantitating the radioactivity associated with the monolayer as described. Dustin and Springer, J. Cell Biol. 1988, 107, 321-331. Antisense oligonucleotides may target either ICAM-1, VCAM-1 or ELAM-1 in the assay.
An example of the effects of antisense oligonucleotides targeting ICAM-1 mRNA on the adherence of DMSO differentiated HL-60 cells to tumor necrosis factor treated human umbilical vein endothelial cells is shown in FIG. 7. Human umbilical vein endothelial cells were grown to 80% confluence in 12 well plates. The cells were treated with 2 μM oligonucleotide diluted in Opti-MEM containing 8 μM DOTMA for 4 hours at 37° C. The medium was removed and replaced with fresh endothelial cell growth medium (EGM-UV) containing 2 μM of the indicated oligonucleotide and incubated 4 hours at 37° C. Tumor necrosis factor, 1 ng/ml, was added to cells as indicated and cells incubated for an additional 19 hours. The cells were washed once with EGM-UV and 1.6×10^6 HL-60 cells differentiated for 4 days with 1.3% DMSO added. The cells were allowed to attach for 1 hour at 37° C. and gently washed 4 times with Dulbecco's phosphate-buffered saline (D-PBS) warmed to 37° C. Adherent cells were detached from the monolayer by addition of 0.25 ml of cold (4EC) phosphate-buffered saline containing 5 mM EDTA and incubated on ice for 5 minutes. The number of cells removed by treatment with EDTA was determined by counting with a hemocytometer. Endothelial cells detached from the monolayer by EDTA treatment could easily be distinguished from HL-60 cells by morphological differences. In the absence of tumor necrosis factor, 3% of the HL-60 cells bound to the endothelial cells. Treatment of the endothelial cell monolayer with 1 ng/ml tumor necrosis factor increased the number of adhering cells to 59% of total cells added (FIG. 7).
Human umbilical vein endothelial (HUVEC) cells were grown and treated with oligonucleotides as in Example 4. Cells were treated with either ISIS 1939, ISIS 1940, or the control oligonucleotide ISIS 1821 for 4 hours, then stimulated with TNF-α for 20 hours. Basal HUVEC minimally bound HL-60 cells, while TNF-stimulated HUVEC bound 19% of the total cells added. Pretreatment of the HUVEC monolayer with 0.3 ìM ISIS 1939 reduced the adherence of HL-60 cells to basal levels, as shown in FIG. 11.

ICAM-1 [2] = test: ELISA screening for ICAM-1 expression in interleukin-1β-stimulated cells (HUVEC and A549); format: cell-based, human; conditions: interleukin-1β-stimulated cells, two cell lines (HUVEC, A549)
[3] = test system: complementary DNA sequences (ICAM-1 target sites); test: Tm of oligonucleotide hybridized to complementary DNA; format: binding, human; conditions: 4 μM each strand, 100 mM Na+, 10 mM phosphate, 0.1 mM EDTA, pH 7.0; phosphorothioate vs complementary phosphodiester DNA
From the text: The antisense oligonucleotides (synthesized as phosphorothioates) were hybridized to their complementary DNA sequences (synthesized as phosphodiesters). […] Tm's and free energies of duplex formation were obtained from fits of data to a two-state model with linear sloping baselines ([…]. and D. H. […] Results are averages of at least three experiments.

ICAM-1 [4] = test: Immunoprecipitation of 35S-labelled ICAM-1 from A549 cells; format: cell-based, human; conditions: 1 μM oligonucleotide, interleukin-1β
Protocol: The specificity of the antisense oligonucleotides ISIS 1570 and ISIS 1939 for ICAM-1 was evaluated by immunoprecipitation of ^35S-labelled proteins. A549 cells were grown to confluence in 25 cm^2 tissue culture flasks and treated with antisense oligonucleotides as described in Example 4. The cells were stimulated with interleukin-1β for 14 hours, washed with methionine-free DMEM plus 10% dialyzed fetal calf serum, and incubated for 1 hour in methionine-free medium containing 10% dialyzed fetal calf serum, 1 μM oligonucleotide and interleukin-1β as indicated. ^35S-Methionine/cysteine mixture (Tran^35S-label, purchased from ICN, Costa Mesa, Calif.) was added to the cells to an activity of 100 μCi/ml and the cells were incubated an additional 2 hours. Cellular proteins were extracted by incubation with 50 mM Tris-HCl pH 8.0, 150 mM NaCl, 1.0% NP-40, 0.5% deoxycholate and 2 mM EDTA (0.5 ml per well) at 4° C. for 30 minutes. The extracts were clarified by centrifugation at 18,000×g for 20 minutes. The supernatants were preadsorbed with 200 μl protein G-Sepharose beads (Bethesda Research Labs, Bethesda Md.) for 2 hours at 4° C., divided equally and incubated with either 5 μg ICAM-1 monoclonal antibody (purchased from AMAC Inc., Westbrook Me.) or HLA-A, B antibody (W6/32, produced by murine hybridoma cells obtained from the American Type Culture Collection, Bethesda, Md.) for 15 hours at 4° C. Immune complexes were trapped by incubation with 200 μl of a 50% suspension of protein G-Sepharose (v/v) for 2 hours at 4° C., washed 5 times with lysis buffer and resolved on an SDS-polyacrylamide gel. Proteins were detected by autoradiography.

ICAM-1 [5] = test: ELISA of ICAM-1 expression in A431 cells; format: cell-based; conditions: human epidermal carcinoma A431 cells
Protocol: (§1) Expression of ICAM-1, VCAM-1 and ELAM-1 on the surface of cells can be quantitated using specific monoclonal antibodies in an ELISA. Cells are grown to confluence in 96 well microtiter plates. The cells are stimulated with either interleukin-1 or tumor necrosis factor for 4 to 8 hours to quantitate ELAM-1 and 8 to 24 hours to quantitate ICAM-1 and VCAM-1. Following the appropriate incubation time with the cytokine, the cells are gently washed three times with a buffered isotonic solution containing calcium and magnesium such as Dulbecco's phosphate buffered saline (D-PBS). The cells are then directly fixed on the microtiter plate with 1 to 2% paraformaldehyde diluted in D-PBS for 20 minutes at 25° C. The cells are washed again with D-PBS three times. Nonspecific binding sites on the microtiter plate are blocked with 2% bovine serum albumin in D-PBS for 1 hour at 37° C. Cells are incubated with the appropriate monoclonal antibody diluted in blocking solution for 1 hour at 37° C. Unbound antibody is removed by washing the cells three times with D-PBS. Antibody bound to the cells is detected by incubation with a 1:1000 dilution of biotinylated goat anti-mouse IgG (Bethesda Research Laboratories, Gaithersburg, Md.) in blocking solution for 1 hour at 37° C. Cells are washed three times with D-PBS and then incubated with a 1:1000 dilution of streptavidin conjugated to β-galactosidase (Bethesda Research Laboratories) for 1 hour at 37° C. The cells are washed three times with D-PBS for 5 minutes each. The amount of β-galactosidase bound to the specific monoclonal antibody is determined by developing the plate in a solution of 3.3 mM chlorophenolred-β-D-galactopyranoside, 50 mM sodium phosphate, 1.5 mM MgCl2; pH=7.2 for 2 to 15 minutes at 37° C. The concentration of the product is determined by measuring the absorbance at 575 nm in an ELISA microtiter plate reader. […]
(§2) Cells grown in 96-well plates were washed three times with Opti-MEM (GIBCO, Grand Island, N.Y.) prewarmed to 37° C. […] ICAM-1 expression was determined as described in Example 1. […]

ICAM-1 [6] = test: ELISA of ICAM-1 expression in primary human keratinocytes; format: cell-based
Protocol: as §1, §2

ICAM-1 [7] = test: ELISA of ICAM-1 cell surface expression in C8161 human melanoma cells; format: cell-based; conditions: 15 μg/ml Lipofectin, 5 ng/ml TNF-α 16 hours
Protocol: (§3) ICAM-1 expression on the cell surface was measured by ELISA. Cells were treated with increasing concentrations of antisense oligonucleotides in the presence of 15 μg/ml Lipofectin for 4 hours at 37° C. ICAM-1 expression was induced by incubation with 5 ng/ml TNF-α for 16 hours. Cells were washed 3× in DPBS and fixed for 20 minutes in 2% formaldehyde. Cells were washed in DPBS, blocked with 2% BSA for 1 hour at 37° C. and incubated with ICAM-1 monoclonal antibody 84H10 (AMAC, Inc., Westbrook, Me.). Detection of bound antibody was determined by incubation with a biotinylated goat anti-mouse IgG followed by incubation with […] streptavidin and developed with chlorophenol red-β-D-galactopyranoside and quantified by absorbance at 575 nm. ICAM-1 mRNA levels were measured by Northern blot analysis.
The data were expressed as percentage of control activity, calculated as follows: (ICAM-1 expression for oligonucleotide-treated, cytokine-induced cells)−(basal ICAM-1 expression)/(ICAM-1 cytokine-induced expression)−(basal ICAM-1 expression)×100.

ICAM-1 mRNA = test: Northern blot of ICAM-1 mRNA in C8161 cells; format: cell-based, human; conditions: Northern blot analysis
Protocol: as §3

[8] = test system: C8161 human melanoma cells; test: Experimental metastasis assay of oligonucleotide-treated C8161 cells in athymic nude mice; format: in vivo
Protocol: To evaluate the role of ICAM-1 in metastasis, experimental metastasis assays were performed by injecting 1×10^5 C8161 cells into the lateral tail vein of athymic nude mice. […] Assoc. Cancer Res. 1990, 13, 353].
After 4 weeks, mice were sacrificed, organs were fixed in Bouin's fixative and metastatic lesions on lungs were scored with the aid of a dissecting microscope. Four-week-old female athymic nude mice (Harlan Sprague Dawley) were used. Animals were maintained under the guidelines of the NIH. Groups of 4-8 mice each were tested in experimental metastasis assays.
Treatment of C8161 cells with antisense oligonucleotides ISIS 1570 and ISIS 2302, complementary to ICAM-1, was performed in the presence of the cationic lipid, Lipofectin (Gibco/BRL, Gaithersburg, Md.). Antisense oligonucleotides were synthesized as described in Example 3. Cells were seeded in 60 mm tissue culture dishes at 10^6 cells/ml and incubated at 37 °C for 3 days, washed with OPTI-MEM (Gibco/BRL) 3 times and 100 μl of OPTI-MEM medium was added to each well. 0.5 μM oligonucleotide and 15 μg/ml lipofectin were mixed at room temperature for 15 minutes. 25 μl of the oligonucleotide-lipofectin mixture was added to the appropriate dishes and incubated at 37° C. for 4 hours. The oligonucleotide-lipofectin mixture was removed and replaced with DME-F12 medium containing 10% fetal calf serum. After 4 hours, 500 U/ml TNF-α was added to the appropriate wells and incubated for 18 hours at which time cells were removed from the plates, counted and injected into athymic nude mice.

[9] = test system: human corneal donor buttons; test: Human corneal donor buttons stored in OPTISOL with ISIS 2302
Protocol: Eleven human corneal donor buttons were stored in TM OPTISOL™ for 8 days and used as the control group. Additional corneal buttons were used for the experimental group and were stored in OPTISOL™ with either 200 μg/ml ISIS 2302 (n=10) or 400 μg/ml ISIS 2302 (n=8). Endothelial cell density was evaluated by specular microscopy. After 8 days, all corneas were prepared for SEM and photographs were taken of endothelial and epithelial surfaces.

Compound | reduction in mean leukocyte count (leukocyte migration) [%] | percentage of HL-60 cells adhering [1] [%] | inhibition of ICAM-1 expression, relative activity in words (ICAM-1 [2]) | Tm [3] [°C] | ICAM-1 synthesis (ICAM-1 [4]) | inhibition of ICAM-1 expression (ICAM-1 [5]) | inhibition of ICAM-1 expression (ICAM-1 [6]) | cell surface expression of ICAM-1 (ICAM-1 [7]) | ICAM-1 mRNA levels (ICAM-1 mRNA) | No. Lung Metastases per Mouse (Mean ± S.E.M.) ([8]; C8161 cells treated with 0.5 μM oligonucleotide + Lipofectin + TNF-α, Lipofectin + TNF-α 81 ± 8) | No. Lung Metastases per Mouse (Mean ± S.E.M.) ([8]; C8161 cells treated with 0.5 μM oligonucleotide + Lipofectin, no TNF-α, Lipofectin only 64 ± 13) | toxicity to stored human corneas [9] | endothelial cell density by specular microscopy ([9]; 200 or 400 μg/ml in OPTISOL, after 2 or 8 days of storage, vs control)
COc1ccc2c(c1)c(CC(=O)O)c(C)n2C(=O)c1ccc(Cl)cc1 [indomethacin] | 79 | – | – | – | – | – | – | – | – | – | – | – | –
ISIS 1940: P=S, human ICAM-1 3′-Untranslated (2975-2994), polyadenylation signal, SEQ ID NO 16, TTGAGAAAGCTTTATTAACT (antisense dT*dT*dG*dA*dG*dA*dA*dA*dG*dC*dT*dT*dT*dA*dT*dT*dA*dA*dC*dT) | – | 9 | did not inhibit ICAM-1 expression | < 50 | did not significantly reduce ICAM-1 synthesis | – | – | – | – | – | – | – | –
ISIS 2302: P=S, human ICAM-1 3′-Untranslated (2114-2133), SEQ ID NO 22 (antisense dG*dC*dC*dC*dA*dA*dG*dC*dT*dG*dG*dC*dA*dT*dC*dC*dG*dT*dC*dA) | – | – | most active of the series, with activity comparable to that of ISIS 1939 | – | – | inhibit ICAM-1 expression | inhibit ICAM-1 expression | decreased cell surface expression of ICAM-1 | markedly reduced | 31 ± 8 | 23 ± 6 | not markedly toxic | no difference in endothelial cell density
